Data on three compounds can be found in US8921421B2, “Inhibitors of dimethylarginine dimethylaminohydrolase” (Christian-Albrechts-Universitaet Zu Kiel, priority 2008, dated 2014).

Format in all cases: biochemical
In test [1] the target is T1, hDDAH-1 (Homo sapiens (Human), UniProt O94760). Nature of the test: In vitro hDDAH-1 assay (HPLC), inhibition at 1 mM inhibitor. As to conditions: inhibitor 1 mM, NMMA 200 μM, 2 μg hDDAH-1, 30 min 37° C.; MV±SD of at least four incubations. The procedure: This assay was used to determine the inhibiting effect of the inhibitors in a concentration of 1 mM. A standard incubation mixture consisted of 75 μl of 50 mM potassium phosphate buffer pH 7.4 and contained NMMA in a concentration of 200 μM. The inhibitors were used in final concentrations of 1 mM. By adding 2 μg of hDDAH-1, the reaction was started and the samples were incubated for 30 minutes at 37° C. in, a shaking water bath. The reaction was then stopped by adding 75 μl of acetonitrile, the samples were shaken for 5′ minutes and centrifuged (12,000 g, 5 min). The supernatant was added to the HPLC.
T1 sequence (O94760 whole entry): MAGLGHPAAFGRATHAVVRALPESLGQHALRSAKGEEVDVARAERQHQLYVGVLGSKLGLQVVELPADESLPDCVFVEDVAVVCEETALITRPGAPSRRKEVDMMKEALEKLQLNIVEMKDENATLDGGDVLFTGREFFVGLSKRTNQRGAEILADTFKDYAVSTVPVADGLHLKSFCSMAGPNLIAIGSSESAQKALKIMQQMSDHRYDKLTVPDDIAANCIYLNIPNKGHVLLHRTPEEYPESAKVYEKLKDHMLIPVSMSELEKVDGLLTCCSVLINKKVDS
In addition, three incubations without added inhibitor were carried out in each case and worked up as specified above. The L-citrulline concentration detected in the samples was set at 100% and the amount of L-citrulline formed in the samples with added inhibitor was referred to this value.
For analysing the samples of the in vitro hDDAH-1 assay (HPLC), o-PA pre-column derivatisation was used with subsequent fluorescence detection of the amino acids. • HPLC plant: Waters Autosampler 717plus, Waters 600 Controller, Waters 600 Pump, Waters Fluorescence Detector 470 and EZChrom Elite Client/Server Measurement and evaluation software (version 2.8.3) • Stationary phase: NovaPak RP-18 column 4 μm (4×150 mm, VDS Optilab) pre-column: Phenomenex C18 (4×3.0 mm) • Temperature: 30° C.
• Detection: Fluorescence: λex: 338 nm; 425 nm. • Injection volume: 10 μl • Derivat. reagent: 50 mg o-PA dissolved in 1 ml of methanol • +9 ml 0.2 M of potassium borate buffer pH 9.4 • +53 μl 2-mercaptoethanol • Derivatisation: The auto sampler was programmed such that 10 μl of the sample were mixed with 14 μl of the derivatisation reagent and could react for 3 minutes at room, temperature prior to injection. Retention times: • L-citrulline 12.2±0.3 min • NMMA 15.8±0.4 min • Methylamine 23.4±0.1 min

Test [2] addresses T1, hDDAH-1. Nature of the test: Determination of the IC50 value (plate-reader assay). As to conditions: NMMA 300 μM, 4 μg recombinant hDDAH-1, 30 min 37° C.; determined at least twice.
Protocol: The samples for the plate-reader assay were incubated directly on a 96-well microtiter plate. An incubation mixture consisted of 150 μl of 50 mM potassium phosphate buffer pH 7.4 with NMMA in a final concentration of 300 μM. The inhibitor was added in five different concentrations and the reaction was started by adding 4 μg of recombinant hDDAH-1. In addition, two mixtures without added inhibitor were incubated. The plate was closed with a lid and incubated for 30 minutes on a plate incubator (shaker DTS-4, LTF-Labortechnik GmbH, Wasserburg, Germany) at 37° C. The reactions were stopped using 200 μl of the Colder reagent and the citrulline that had formed was derivatised (see derivatisation for plate-reader assay). The IC50 value was then calculated by means of SigmaPlot 8.0 (SPSS Chicago, USA). Derivatisation was carried out on particularly heat-stable 96-well microtiter plates. 200 μl of the Colder reagent was added to the samples (150 μl) and to prevent evaporation, the plate was closed with a heat-stable adhesive film (Nunc, Wiesbaden, Germany). Colour formation then took place in the drying oven at 95° C. for 15-20 minutes. Before photometric measurements were taken, there was a wait until the plate had reached room temperature and then the colour intensity at 540.5 nm (Carry 50 microplate reader, Varian, Darmstadt, Germany) was measured.
For test [3], the target named is T1, hDDAH-1. The experiment in a line: Determination of the Ki value (plate-reader assay). As to conditions: five NMMA concentrations (50-1250 μM), recombinant hDDAH-1; determined at least twice.
Protocol: The Ki value was determined as described for the IC50 value, with the difference that five different NMMA concentrations (50, 100, 300, 750 and 1250 μM) were used. The incubations were carried out such that each NMMA concentration was in each case incubated twice with each of the five inhibitor concentrations. On top of this, incubations using the different NMMA concentrations were carried out without added inhibitor.
For each inhibitor concentration, using SigmaPlot 8.0 (SPSS Inc., Chicago, USA) the respective apparent Km value and Vmax were determined. Via secondary plotting of the inhibitor concentrations versus Km/Vmax the Ki value was determined by extrapolation of the least-squares lines onto the abscissa.
Derivatisation was carried out on particularly heat-stable 96-well microtiter plates. 200 μl of the Colder reagent was added to the samples (150 μl) and to prevent evaporation, the plate was closed with a heat-stable adhesive film (Nunc, Wiesbaden, Germany). Colour formation then took place in the drying oven at 95° C. for 15-20 minutes. Before photometric measurements were taken, there was a wait until the plate had reached room temperature and then the colour intensity at 540.5 nm (Carry 50 microplate reader, Varian, Darmstadt, Germany) was measured. Measurement took place during 20 minutes since the reaction product is not stable (Knipp and Vasak 2000).

As a reminder, the inhibition is how much of the control response was suppressed. A lower inhibition goes with little suppression. In the case of `C=CCC(=N)NCCCCN` [Substance 5, N-(4′-aminobutyl)but-3-enamidine bis(trifluoracetate)], the inhibition at 1000 µM against hDDAH-1 [1] turned out to be 40 ± 6%.

The compound `COCCNC(=N)NCCC[C@H](N)C(=O)O` [Substance L-257, N^ω-(2-methoxyethyl)-L-arginine, reference compound] gave an inhibition at 1000 µM at hDDAH-1 [1] of 89 ± 2%.

A word on the IC50: it is the midpoint of a concentration-inhibition curve. The term Ki denotes the equilibrium dissociation constant of an inhibitor or competing ligand from its target. In the case of `COCC/N=C(/N)NCCCCN` [Substance 3, N-(4-aminobutyl)-N′-(2-methoxyethyl)guanidine bis(trifluoracetate)], the IC50 at hDDAH-1 [2] worked out at 70 ± 16 µM. The Ki on hDDAH-1 [3] amounted to 18 ± 6 µM. This compound also came in with an inhibition at 1000 µM against hDDAH-1 [1] of 80 ± 5%.
